According to patent EP3409278B1, “HETEROCYCLIC PROTEIN KINASE INHIBITORS” (Tolero Pharmaceuticals, Inc., priority 2011, dated 2013):

Columns and labels:
PC-3 cells = experiment: Colony formation assay, PC-3; type: cell-based
Method: (§1) For shRNA growth experiments, 500 UM-UC-3 cells were seeded in a 12-well plate 48 hours post-transduction and cultured for 8-10 days at 37°C in 5% CO2. Cells were fixed with 4% paraformaldehyde in PBS, washed twice with PBS, and stained with a crystal violet solution (1% crystal violet, 10% ethanol in water). Stained cells were washed thrice with water, and imaged after drying on a GelCount colony counter (Oxford Optronix Ltd., Oxford, UK). Total staining intensity per well was determined by lysis of cells with 200 µl of Triton X-100 lysis buffer (1% Triton X-100, 50 mM Tris-HCl pH 7.4, 150 mM NaCl, 1 mM EDTA). Lysates (100 µl) from each well were transferred to a clear 96-well plate and absorbance at 560 nm was determined on an Envision microplate reader. IC50 values were determined using GraphPad Prism software. For compound treated PC-3 and UM-UC-3, cells were seeded and stained as above, but were incubated with various concentrations of test compound or DMSO one day after seeding.
(§2) Translational models were also explored for PIM dependency using shRNA knockdown. The UM-UC-3 urinary epithelial bladder carcinoma cell line was used to verify and validate dependency on PIM-1 for growth.

PC-3 = experiment: Established PC-3 mouse xenograft tumors; type: in vivo
Text: (§3) Male and female Nu/Nu mice were purchased from Harlan Sprague Dawley (Indianapolis, IN). Female Nu/Nu mice were used for all xenograft evaluations with the exception of the PC-3 xenografts where male Nu/Nu mice were used. Cell lines were expanded In vitro in complete media, and if adherent were harvested by trypsin-EDTA, centrifuged and resuspended in PBS 1:1 with Matrigel (BD Bioscienes). Cells were inoculated subcutaneously in the right hind flank of mice. When tumors reached 100-200 mm^3 by caliper measurement, mice were randomized and dosing of SGI-9481 or vehicle control began and continued every day for 5 days (QDx5) with 2 days off for 18-21 days. Tumor volumes and body weights were determined twice a week, and tumor weights were measured at the completion of the translational xenograft studies.

[1] = system: ML-2 cells (wild-type FLT3); experiment: ML-2 mouse xenograft study; type: in vivo; conditions: ML-2 xenografts (wild-type FLT3)
Text: as §3

MV-4-11 (FLT3-ITD) = experiment: MV-4-11 mouse xenograft study; type: in vivo; conditions: MV-4-11 xenografts (FLT3-ITD)
Text: as §3

[2] = system: phosphatidyl inositol-3-kinase (PI3K) family; experiment: Selectivity study; type: biochemical; conditions: data not given
UM-UC-3 cells = experiment: Colony formation assay, UM-UC-3; type: cell-based
Method: as §1, §2

22RV1/PIM-1 = 22RV1/PIM-1 over-expression tumor xenograft; type: in vivo, mouse
Text: as §3
(§4) . The prostate cancer cell line 22RV1 engineered to over-express PIM-1 as previously described (Mumenthaler, et al, Mol. Cancer Ther., 2009, 8(10)2882-93) was evaluated in vivo. A second model engineered to over-express PIM-2 was established using the NIH-3T3 mouse fibroblast cell line. […]. […].

NIH-3T3/PIM-2 = NIH-3T3/PIM-2 over-expression tumor xenograft; type: in vivo, mouse
Text: as §3, §4

UM-UC-3 = experiment: Established UM-UC-3 mouse xenograft tumors; type: in vivo
Text: as §3

[3] = 125 mg/kg, less than with 200 mg/kg

SMILES: CC(C)(O)[C@H]1CC[C@H](Nc2ccc3ncc(-c4cccc(C(F)(F)F)c4)n3n2)CC1 [8-31]
- colony growth (PC-3 cells): reduced colony growth
- tumor growth inhibition (PC-3; [3]): significant tumor growth inhibition
- plasma and tumor tissue levels (PC-3; PC-3 tumor-burdened mice, 200 mg/kg): above the in vitro proliferation EC50
- body weight or gross adverse toxicity (PC-3; oral dosing of 200 mg/kg): no significant changes in body weight or gross adverse toxicity
- tumor growth measured by volume (caliper) and by final tumor weight (PC-3; oral dosing of 200 mg/kg): significantly reduced
- tumor growth inhibition [1]: significant tumor growth inhibition
- effect on established xenografts (MV-4-11 (FLT3-ITD)): induced regressions
- inhibitory activity against multiple members of the PI3K family [2]: inhibitory activity
- colony growth (UM-UC-3 cells): reduced colony growth
- subcutaneous tumor growth (22RV1/PIM-1; 22RV1/PIM-1 + compound vs. 22RV1/PIM-1 + vehicle): significantly reduced
- body weight (22RV1/PIM-1; 22RV1/PIM-1 xenograft mice): No significant changes in body weight
- subcutaneous tumor growth (NIH-3T3/PIM-2; NIH-3T3/PIM-2 + compound vs. NIH-3T3/PIM-2 + vehicle): significantly inhibited
- body weight (NIH-3T3/PIM-2; NIH-3T3/PIM-2 xenograft mice): No significant changes in body weight
- tumor growth inhibition (UM-UC-3; [3]): significant tumor growth inhibition
- body weight or gross adverse toxicity (UM-UC-3; oral dosing of 200 mg/kg): no significant changes in body weight or gross adverse toxicity
- tumor growth measured by volume (caliper) and by final tumor weight (UM-UC-3; oral dosing of 200 mg/kg): significantly reduced
